Laboratory results: PMC12152171, “Dual-mode recognition of tRNA^Pro isoacceptors by Toxoplasma gondii Prolyl-tRNA synthetase” (EMBO Reports, 2025)
Like-named read-outs stand apart in the source and are kept apart here.

Tests used:
[1] = molecular target: T1, Toxoplasma gondii prolyl-tRNA synthetase (TgProRS) (Toxoplasma gondii, UniProt S8G8I1); assay: [3H]-proline aminoacylation inhibition assay with cytosolic tRNA(Pro) (TgtRNAn^Pro); IC50 […] with apicoplast TgtRNAa^Pro; type: biochemical
T1 construct: gene TGME49_219850; lacking OTS and ProXp-ala (amino acid residues 1–333 removed), N-terminal His10 tag
T1 sequence (S8G8I1 entry or part of it): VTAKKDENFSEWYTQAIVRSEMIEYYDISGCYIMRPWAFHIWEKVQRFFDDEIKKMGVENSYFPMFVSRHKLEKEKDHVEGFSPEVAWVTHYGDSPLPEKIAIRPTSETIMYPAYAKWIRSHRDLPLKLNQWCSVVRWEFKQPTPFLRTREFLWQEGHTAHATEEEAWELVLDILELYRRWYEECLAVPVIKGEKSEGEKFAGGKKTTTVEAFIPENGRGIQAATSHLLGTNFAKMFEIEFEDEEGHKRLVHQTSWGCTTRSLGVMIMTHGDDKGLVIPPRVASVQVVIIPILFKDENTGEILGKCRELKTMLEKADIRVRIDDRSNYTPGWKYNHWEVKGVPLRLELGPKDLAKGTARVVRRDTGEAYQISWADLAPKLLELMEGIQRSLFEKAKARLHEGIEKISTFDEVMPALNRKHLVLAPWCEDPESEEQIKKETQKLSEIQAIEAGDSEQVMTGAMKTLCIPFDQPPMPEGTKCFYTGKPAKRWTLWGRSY

[2] = molecular target: T1, Toxoplasma gondii prolyl-tRNA synthetase (TgProRS); assay: as above; type: biochemical; remark: listed apart in the source

SMILES: O=C(C[C@H]1NCCC[C@@H]1O)Cn1cnc2cc(Br)c(Cl)cc2c1=O (racemic) [HF, Halofuginone]
- IC50 [1]: 0.005 µM

SMILES: O=C(O)[C@@H]1CCN1 [A2C, Azetidine-2-carboxylic acid]
- IC50 [2]: 1300 µM
